Measurements as given in PubChem BioAssay (NCI).
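Briefly, cells in 96-well plates were exposed to five compound concentrations for 48 h, and endpoints were estimated by linear interpolation. TGI: concentration producing complete growth inhibition.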

Columns and labels:
Experiment in all cases: DTP human tumour cell line panel, 48 h
[1] = system: HOP-92 NSCLC
[2] = system: SF-268 CNS
[3] = system: DLD-1 colon
[4] = system: 786-0 renal
[5] = system: HT29 colon
[6] = system: MOLT-4 leukemia
[7] = system: CCRF-CEM leukemia
[8] = system: NCI-H460 lung
[9] = system: DMS 273 small cell lung
[10] = system: NCI-H23 lung
[11] = system: SF-539 CNS
[12] = system: SN12C renal
[13] = system: OVCAR-5 ovarian
[14] = system: SW-620 colon
[15] = system: K-562 leukemia
[16] = system: OVCAR-3 ovarian
[17] = system: HOP-18 NSCLC
[18] = system: A498 renal
[19] = system: HOP-62 NSCLC
[20] = system: OVCAR-8 ovarian
[21] = system: UACC-257 melanoma
[22] = system: SNB-75 CNS
[23] = system: HCC-2998 colon
[24] = system: SK-MEL-5 melanoma
[25] = system: UACC-62 melanoma
[26] = system: SNB-78 CNS
[27] = system: DMS 114 small cell lung
[28] = system: NCI-H226 lung
[29] = system: XF 498 CNS
[30] = system: SNB-19 CNS
[31] = system: M19-MEL melanoma
[32] = system: NCI-H522 lung
[33] = system: LOX IMVI melanoma
[34] = system: EKVX NSCLC
[35] = system: KM20L2 colon
[36] = system: SK-OV-3 ovarian
[37] = system: HCT-116 colon
[38] = system: LXFL 529 NSCLC
[39] = system: SK-MEL-28 melanoma
[40] = system: RXF 393 renal
[41] = system: HCT-15 colon
[42] = system: TK-10 renal
[43] = system: CAKI-1 renal
[44] = system: KM12 colon
[45] = system: A549 NSCLC
[46] = system: U251 CNS
[47] = system: MALME-3M melanoma
[48] = system: ACHN renal
[49] = system: IGROV1 ovarian
[50] = system: OVCAR-4 ovarian
[51] = system: UO-31 renal
[52] = system: COLO 205 colon
[53] = system: SK-MEL-2 melanoma
[54] = system: M14 melanoma
[55] = system: SF-295 CNS
[56] = system: SR leukemia
[57] = system: RPMI-8226 leukemia
[58] = system: HL-60(TB) leukemia
[59] = system: RXF-631 renal

Molecule `CCOC(=O)NNC(=O)NC12CC3CC(CC(C3)C1)C2` has a TGI [1] of over 100 µM, a TGI [2] of over 100 µM and a TGI [3] of over 100 µM. It also gave a TGI [4] of over 100 µM, a TGI [5] of over 100 µM and a TGI [6] of over 100 µM. It also gave a TGI [7] of over 100 µM, a TGI [8] of over 100 µM and a TGI [9] of over 100 µM. For the same molecule, the TGI [10] was over 100 µM, the TGI [11] was over 100 µM and the TGI [12] was over 100 µM. For the same molecule, the TGI [13] was over 100 µM, the TGI [14] was over 100 µM and the TGI [15] was over 100 µM. The TGI [16] was over 100 µM, the TGI [17] was over 100 µM and the TGI [18] was over 100 µM. The TGI [19] was over 100 µM, the TGI [20] was over 100 µM and the TGI [21] was over 100 µM. It also gave a TGI [22] of over 100 µM, a TGI [23] of over 100 µM and a TGI [24] of over 100 µM. The TGI [25] was over 100 µM, the TGI [26] was over 100 µM and the TGI [27] was over 100 µM. For the same molecule, the TGI [28] was over 100 µM, the TGI [29] was over 100 µM and the TGI [30] was over 100 µM. The TGI [31] was over 100 µM, the TGI [32] was over 100 µM and the TGI [33] was over 100 µM. It also gave a TGI [34] of over 100 µM, a TGI [35] of over 100 µM and a TGI [36] of over 100 µM. For the same molecule, the TGI [37] was over 100 µM, the TGI [38] was over 100 µM and the TGI [39] was over 100 µM. For the same molecule, the TGI [40] was over 100 µM, the TGI [41] was over 100 µM and the TGI [42] was over 100 µM. For the same molecule, the TGI [43] was over 100 µM, the TGI [44] was over 100 µM and the TGI [45] was over 100 µM. The TGI [46] was over 100 µM, the TGI [47] was over 100 µM and the TGI [48] was over 100 µM. It also gave a TGI [49] of over 100 µM, a TGI [50] of over 100 µM and a TGI [51] of over 100 µM. For the same molecule, the TGI [52] was over 100 µM, the TGI [53] was over 100 µM and the TGI [54] was over 100 µM. It also gave a TGI [55] of over 100 µM.

`CCN(CC)c1ccc(C(=C2C=CC(=[N+](CC)CC)C=C2)c2ccccc2)cc1` showed a TGI [1] of 0.0971 µM, a TGI [2] of 0.195 µM and a TGI [3] of 0.193 µM. It also gave a TGI [4] of 0.151 µM, a TGI [6] of 0.0383 µM and a TGI [7] of 0.0401 µM. It also gave a TGI [9] of 0.134 µM, a TGI [10] of 0.0929 µM and a TGI [11] of 0.269 µM. For the same molecule, the TGI [12] was 0.0878 µM, the TGI [56] was 0.0791 µM and the TGI [13] was 0.342 µM. The TGI [14] was 0.138 µM, the TGI [15] was 0.0968 µM and the TGI [19] was 0.491 µM. It also gave a TGI [21] of 0.18 µM, a TGI [22] of 1.25 µM and a TGI [23] of 0.135 µM. For the same molecule, the TGI [24] was 0.041 µM, the TGI [25] was 0.231 µM and the TGI [26] was 0.237 µM. The TGI [27] was 0.208 µM, the TGI [57] was 0.0683 µM and the TGI [28] was 0.0683 µM. It also gave a TGI [29] of 0.0391 µM, a TGI [30] of 0.179 µM and a TGI [31] of 0.158 µM. The TGI [32] was 0.143 µM, the TGI [33] was 0.105 µM and the TGI [34] was 0.581 µM. For the same molecule, the TGI [35] was 0.117 µM, the TGI [36] was 0.0854 µM and the TGI [37] was 0.127 µM. For the same molecule, the TGI [38] was 0.115 µM, the TGI [39] was 0.351 µM and the TGI [40] was 0.0989 µM. For the same molecule, the TGI [41] was 0.587 µM, the TGI [43] was 0.504 µM and the TGI [44] was 0.124 µM. It also gave a TGI [46] of 0.112 µM, a TGI [47] of 0.0902 µM and a TGI [48] of 0.145 µM. The TGI [49] was 0.247 µM, the TGI [50] was 0.488 µM and the TGI [51] was 0.185 µM. For the same molecule, the TGI [52] was 0.136 µM, the TGI [53] was 0.0889 µM and the TGI [54] was 0.641 µM. For the same molecule, the TGI [55] was 0.0664 µM and the TGI [58] was 0.0318 µM.

With `Cc1c(-c2coc(-c3ccc(Cl)cc3)n2)c(=O)n(-c2ccccc2)n1C` the TGI [1] was over 100 µM, the TGI [2] was over 100 µM and the TGI [3] was over 100 µM. It also gave a TGI [4] of over 100 µM, a TGI [5] of over 100 µM and a TGI [6] of over 100 µM. The TGI [7] was over 100 µM, the TGI [8] was over 100 µM and the TGI [9] was over 100 µM. The TGI [10] was over 100 µM, the TGI [11] was over 100 µM and the TGI [12] was over 100 µM. For the same molecule, the TGI [56] was over 100 µM, the TGI [13] was over 100 µM and the TGI [16] was over 100 µM. For the same molecule, the TGI [18] was over 100 µM, the TGI [19] was over 100 µM and the TGI [20] was over 100 µM. It also gave a TGI [21] of over 100 µM, a TGI [22] of over 100 µM and a TGI [23] of over 100 µM. For the same molecule, the TGI [24] was over 100 µM, the TGI [25] was over 100 µM and the TGI [26] was over 100 µM. For the same molecule, the TGI [57] was over 100 µM, the TGI [28] was over 100 µM and the TGI [29] was over 100 µM. It also gave a TGI [31] of over 100 µM, a TGI [32] of over 100 µM and a TGI [33] of over 100 µM. For the same molecule, the TGI [34] was over 100 µM, the TGI [35] was over 100 µM and the TGI [36] was over 100 µM. It also gave a TGI [37] of over 100 µM, a TGI [38] of over 100 µM and a TGI [39] of over 100 µM. It also gave a TGI [41] of over 100 µM, a TGI [42] of over 100 µM and a TGI [44] of over 100 µM. For the same molecule, the TGI [45] was over 100 µM, the TGI [46] was over 100 µM and the TGI [47] was over 100 µM. It also gave a TGI [48] of over 100 µM, a TGI [49] of over 100 µM and a TGI [50] of over 100 µM. The TGI [51] was over 100 µM, the TGI [52] was over 100 µM and the TGI [53] was over 100 µM. For the same molecule, the TGI [54] was over 100 µM, the TGI [55] was over 100 µM and the TGI [58] was over 100 µM.

Work on `COC(=O)C(=O)C(C(=O)C(=O)Nc1ccccc1C(N)=O)c1nc2ccc(C(=O)c3ccccc3)cc2[nH]c1=O` (configuration not stated) yielded a TGI [2] of over 100 µM, a TGI [4] of over 100 µM and a TGI [5] of over 100 µM. The TGI [6] was over 100 µM, the TGI [7] was over 100 µM and the TGI [8] was over 100 µM. For the same molecule, the TGI [9] was over 100 µM, the TGI [10] was over 100 µM and the TGI [11] was over 100 µM. The TGI [12] was over 100 µM, the TGI [56] was over 100 µM and the TGI [13] was over 100 µM. The TGI [14] was over 100 µM, the TGI [15] was over 100 µM and the TGI [17] was over 100 µM. It also gave a TGI [18] of over 100 µM, a TGI [20] of over 100 µM and a TGI [21] of over 100 µM. The TGI [23] was over 100 µM, the TGI [24] was over 100 µM and the TGI [25] was 65.4 µM. It also gave a TGI [26] of over 100 µM, a TGI [27] of over 100 µM and a TGI [57] of over 100 µM. It also gave a TGI [28] of over 100 µM, a TGI [29] of over 100 µM and a TGI [59] of over 100 µM. For the same molecule, the TGI [30] was over 100 µM, the TGI [31] was over 100 µM and the TGI [32] was 93.8 µM. It also gave a TGI [34] of over 100 µM, a TGI [35] of over 100 µM and a TGI [37] of over 100 µM. It also gave a TGI [38] of over 100 µM, a TGI [39] of over 100 µM and a TGI [40] of over 100 µM. The TGI [41] was over 100 µM, the TGI [42] was over 100 µM and the TGI [43] was over 100 µM. For the same molecule, the TGI [44] was over 100 µM, the TGI [45] was over 100 µM and the TGI [46] was over 100 µM. For the same molecule, the TGI [47] was over 100 µM, the TGI [48] was over 100 µM and the TGI [49] was over 100 µM. The TGI [50] was over 100 µM, the TGI [51] was over 100 µM and the TGI [52] was over 100 µM. The TGI [53] was over 100 µM, the TGI [54] was over 100 µM and the TGI [55] was over 100 µM.
